# From ChEMBL document CHEMBL4507301 (2021)
# Tests used:
# [1] = biological target: 1-phosphatidylinositol 3-phosphate 5-kinase (Homo sapiens) (UniProt Q9Y2I7); settings: Compound concentration 1000.0 nM
# [2] = biological target: Mitogen-activated protein kinase kinase kinase 7 (Homo sapiens) (UniProt O43318); settings: Compound concentration 1000.0 nM
# [3] = biological target: Angiopoietin-1 receptor (Homo sapiens) (UniProt Q02763); settings: Compound concentration 1000.0 nM
# [4] = system: eIF-2-alpha kinase GCN2 (Homo sapiens), Q9P2K8 [S808G]; settings: Compound concentration 1000.0 nM
# [5] = biological target: Ephrin type-A receptor 3 (Homo sapiens) (UniProt P29320); settings: Compound concentration 1000.0 nM
# [6] = biological target: Tyrosine-protein kinase Tec (Homo sapiens) (UniProt P42680); settings: Compound concentration 1000.0 nM
# [7] = biological target: Mitogen-activated protein kinase 12 (Homo sapiens) (UniProt P53778); settings: Compound concentration 1000.0 nM
# [8] = biological target: Mitogen-activated protein kinase 11 (Homo sapiens) (UniProt Q15759); settings: Compound concentration 1000.0 nM
# Sequence of Mitogen-activated protein kinase 11 (Homo sapiens) (Q15759 whole entry): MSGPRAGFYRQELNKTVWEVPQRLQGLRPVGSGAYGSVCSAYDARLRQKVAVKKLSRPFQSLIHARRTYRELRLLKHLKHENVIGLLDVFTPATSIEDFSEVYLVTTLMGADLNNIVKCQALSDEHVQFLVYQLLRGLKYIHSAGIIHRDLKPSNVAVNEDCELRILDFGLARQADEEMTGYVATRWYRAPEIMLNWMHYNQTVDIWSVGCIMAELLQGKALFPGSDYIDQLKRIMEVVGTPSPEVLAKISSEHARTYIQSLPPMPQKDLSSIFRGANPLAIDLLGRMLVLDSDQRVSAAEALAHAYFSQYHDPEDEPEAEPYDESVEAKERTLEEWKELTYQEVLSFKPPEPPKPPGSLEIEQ
# [9] = system: Epidermal growth factor receptor (Homo sapiens), P00533 [G719C]; settings: Compound concentration 1000.0 nM
# [10] = biological target: Myosin-IIIa (Homo sapiens) (UniProt Q8NEV4); settings: Compound concentration 1000.0 nM
# [11] = biological target: Vascular endothelial growth factor receptor 1 (Homo sapiens) (UniProt P17948); settings: Compound concentration 1000.0 nM
# [12] = biological target: RAC-gamma serine/threonine-protein kinase (Homo sapiens) (UniProt Q9Y243); settings: Compound concentration 1000.0 nM
# [13] = biological target: Serine/threonine-protein kinase WNK3 (Homo sapiens) (UniProt Q9BYP7); settings: Compound concentration 1000.0 nM
# [14] = biological target: Macrophage-stimulating protein receptor (Homo sapiens) (UniProt Q04912); settings: Compound concentration 1000.0 nM
# [15] = biological target: Phosphatidylinositol 3-kinase catalytic subunit type 3 (Homo sapiens) (UniProt Q8NEB9); settings: Compound concentration 1000.0 nM
# [16] = biological target: MAP/microtubule affinity-regulating kinase 4 (Homo sapiens) (UniProt Q96L34); settings: Compound concentration 1000.0 nM
# [17] = system: Tyrosine-protein kinase ABL1 (Homo sapiens), P00519 [Q252H]; settings: Compound concentration 1000.0 nM
# [18] = biological target: Cyclin-dependent kinase 11B (Homo sapiens) (UniProt P21127); settings: Compound concentration 1000.0 nM
# [19] = system: Epidermal growth factor receptor (Homo sapiens), P00533 [L858R]; settings: Compound concentration 1000.0 nM
# [20] = biological target: Ephrin type-A receptor 5 (Homo sapiens) (UniProt P54756); settings: Compound concentration 1000.0 nM
# [21] = biological target: Serine/threonine-protein kinase 4 (Homo sapiens) (UniProt Q13043); settings: Compound concentration 1000.0 nM
# [22] = biological target: Cyclin-dependent kinase-like 1 (Homo sapiens) (UniProt Q00532); settings: Compound concentration 1000.0 nM
# [23] = biological target: LIM domain kinase 2 (Homo sapiens) (UniProt P53671); settings: Compound concentration 1000.0 nM
# [24] = biological target: Serine/threonine-protein kinase 35 (Homo sapiens) (UniProt Q8TDR2); settings: Compound concentration 1000.0 nM
# [25] = biological target: Macrophage colony-stimulating factor 1 receptor (Homo sapiens) (UniProt P07333); settings: Compound concentration 1000.0 nM
# Sequence of Macrophage colony-stimulating factor 1 receptor (Homo sapiens) (P07333 whole entry): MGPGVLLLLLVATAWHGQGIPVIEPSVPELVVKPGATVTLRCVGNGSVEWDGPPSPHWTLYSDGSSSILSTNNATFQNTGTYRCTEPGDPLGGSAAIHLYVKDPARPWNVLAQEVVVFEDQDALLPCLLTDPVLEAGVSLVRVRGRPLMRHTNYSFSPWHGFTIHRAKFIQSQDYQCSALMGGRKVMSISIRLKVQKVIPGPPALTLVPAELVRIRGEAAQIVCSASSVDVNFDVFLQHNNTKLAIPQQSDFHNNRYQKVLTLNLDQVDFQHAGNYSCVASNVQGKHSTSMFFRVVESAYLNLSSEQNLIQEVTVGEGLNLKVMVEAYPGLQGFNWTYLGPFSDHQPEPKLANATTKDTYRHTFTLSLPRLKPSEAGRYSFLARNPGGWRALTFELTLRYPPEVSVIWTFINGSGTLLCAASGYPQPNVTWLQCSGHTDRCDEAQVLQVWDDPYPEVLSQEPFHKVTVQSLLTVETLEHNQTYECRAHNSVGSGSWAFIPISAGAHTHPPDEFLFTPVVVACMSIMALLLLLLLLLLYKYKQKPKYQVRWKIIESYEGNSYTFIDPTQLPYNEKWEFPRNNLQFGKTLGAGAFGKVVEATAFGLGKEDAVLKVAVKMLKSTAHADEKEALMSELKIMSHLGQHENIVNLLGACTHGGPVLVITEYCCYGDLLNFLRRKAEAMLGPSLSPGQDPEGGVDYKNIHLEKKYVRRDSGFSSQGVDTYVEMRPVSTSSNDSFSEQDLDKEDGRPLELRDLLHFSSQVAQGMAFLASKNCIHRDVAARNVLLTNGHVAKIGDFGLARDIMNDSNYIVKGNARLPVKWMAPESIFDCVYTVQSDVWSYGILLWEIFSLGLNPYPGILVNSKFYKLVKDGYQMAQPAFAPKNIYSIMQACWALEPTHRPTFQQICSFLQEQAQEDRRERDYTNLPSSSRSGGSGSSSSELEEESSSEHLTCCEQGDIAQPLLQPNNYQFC
# [26] = biological target: Calcium/calmodulin-dependent protein kinase type 1G (Homo sapiens) (UniProt Q96NX5); settings: Compound concentration 1000.0 nM
# [27] = biological target: Serine/threonine-protein kinase VRK2 (Homo sapiens) (UniProt Q86Y07); settings: Compound concentration 1000.0 nM
# [28] = biological target: Histamine H4 receptor (Homo sapiens) (UniProt Q9H3N8); settings: Compound concentration 10.0 uM
# [29] = biological target: Serine/threonine-protein kinase SIK3 (Homo sapiens) (UniProt Q9Y2K2); settings: Compound concentration 1000.0 nM
# [30] = biological target: Dual specificity mitogen-activated protein kinase kinase 2 (Homo sapiens) (UniProt P36507); settings: Compound concentration 1000.0 nM
# [31] = biological target: Ephrin type-A receptor 8 (Homo sapiens) (UniProt P29322); settings: Compound concentration 1000.0 nM
# [32] = biological target: Casein kinase I isoform delta (Homo sapiens) (UniProt P48730); settings: Compound concentration 1000.0 nM
# [33] = biological target: Serine/threonine-protein kinase Nek2 (Homo sapiens) (UniProt P51955); settings: Compound concentration 1000.0 nM
# Sequence of Serine/threonine-protein kinase Nek2 (Homo sapiens) (P51955 whole entry): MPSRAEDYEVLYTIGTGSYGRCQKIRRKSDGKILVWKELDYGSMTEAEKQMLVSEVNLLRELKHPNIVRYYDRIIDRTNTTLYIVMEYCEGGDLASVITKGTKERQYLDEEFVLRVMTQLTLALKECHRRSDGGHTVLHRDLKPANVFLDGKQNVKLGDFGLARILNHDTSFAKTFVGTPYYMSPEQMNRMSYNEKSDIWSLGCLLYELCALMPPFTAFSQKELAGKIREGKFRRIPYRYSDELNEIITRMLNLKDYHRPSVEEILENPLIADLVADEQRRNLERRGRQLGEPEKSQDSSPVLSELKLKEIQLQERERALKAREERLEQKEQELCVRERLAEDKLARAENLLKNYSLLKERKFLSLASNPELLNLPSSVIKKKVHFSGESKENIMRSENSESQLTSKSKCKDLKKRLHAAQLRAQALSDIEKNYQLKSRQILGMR
# [34] = biological target: Inhibitor of nuclear factor kappa-B kinase subunit epsilon (Homo sapiens) (UniProt Q14164); settings: Compound concentration 1000.0 nM
# Sequence of Inhibitor of nuclear factor kappa-B kinase subunit epsilon (Homo sapiens) (Q14164 whole entry): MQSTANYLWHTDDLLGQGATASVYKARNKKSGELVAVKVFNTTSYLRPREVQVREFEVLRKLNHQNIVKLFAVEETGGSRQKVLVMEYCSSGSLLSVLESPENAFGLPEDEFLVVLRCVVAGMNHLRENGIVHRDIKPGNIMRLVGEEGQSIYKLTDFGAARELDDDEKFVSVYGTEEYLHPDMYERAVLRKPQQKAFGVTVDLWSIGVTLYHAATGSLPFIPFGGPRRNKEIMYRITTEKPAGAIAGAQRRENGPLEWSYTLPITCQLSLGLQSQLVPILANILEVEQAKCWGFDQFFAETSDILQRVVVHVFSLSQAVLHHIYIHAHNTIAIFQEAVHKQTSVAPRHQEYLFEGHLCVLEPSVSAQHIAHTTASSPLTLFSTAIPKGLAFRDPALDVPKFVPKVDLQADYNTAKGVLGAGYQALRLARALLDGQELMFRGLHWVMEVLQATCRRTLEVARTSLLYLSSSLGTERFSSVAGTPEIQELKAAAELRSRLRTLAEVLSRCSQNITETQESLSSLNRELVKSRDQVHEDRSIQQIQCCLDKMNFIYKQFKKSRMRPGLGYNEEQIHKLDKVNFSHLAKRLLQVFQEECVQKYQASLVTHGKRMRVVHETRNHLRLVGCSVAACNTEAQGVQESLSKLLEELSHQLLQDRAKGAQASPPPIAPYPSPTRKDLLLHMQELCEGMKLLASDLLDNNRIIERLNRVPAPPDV
# [35] = system: Receptor-type tyrosine-protein kinase FLT3 (Homo sapiens), P36888 [UNDEFINED MUTATION]; settings: Compound concentration 1000.0 nM
# [36] = biological target: Tyrosine-protein kinase SYK (Homo sapiens) (UniProt P43405); settings: Compound concentration 1000.0 nM
# [37] = biological target: Serine/threonine-protein kinase PAK 3 (Homo sapiens) (UniProt O75914); settings: Compound concentration 1000.0 nM
# [38] = biological target: Inhibitor of nuclear factor kappa-B kinase subunit alpha (Homo sapiens) (UniProt O15111); settings: Compound concentration 1000.0 nM
# Sequence of Inhibitor of nuclear factor kappa-B kinase subunit alpha (Homo sapiens) (O15111 whole entry): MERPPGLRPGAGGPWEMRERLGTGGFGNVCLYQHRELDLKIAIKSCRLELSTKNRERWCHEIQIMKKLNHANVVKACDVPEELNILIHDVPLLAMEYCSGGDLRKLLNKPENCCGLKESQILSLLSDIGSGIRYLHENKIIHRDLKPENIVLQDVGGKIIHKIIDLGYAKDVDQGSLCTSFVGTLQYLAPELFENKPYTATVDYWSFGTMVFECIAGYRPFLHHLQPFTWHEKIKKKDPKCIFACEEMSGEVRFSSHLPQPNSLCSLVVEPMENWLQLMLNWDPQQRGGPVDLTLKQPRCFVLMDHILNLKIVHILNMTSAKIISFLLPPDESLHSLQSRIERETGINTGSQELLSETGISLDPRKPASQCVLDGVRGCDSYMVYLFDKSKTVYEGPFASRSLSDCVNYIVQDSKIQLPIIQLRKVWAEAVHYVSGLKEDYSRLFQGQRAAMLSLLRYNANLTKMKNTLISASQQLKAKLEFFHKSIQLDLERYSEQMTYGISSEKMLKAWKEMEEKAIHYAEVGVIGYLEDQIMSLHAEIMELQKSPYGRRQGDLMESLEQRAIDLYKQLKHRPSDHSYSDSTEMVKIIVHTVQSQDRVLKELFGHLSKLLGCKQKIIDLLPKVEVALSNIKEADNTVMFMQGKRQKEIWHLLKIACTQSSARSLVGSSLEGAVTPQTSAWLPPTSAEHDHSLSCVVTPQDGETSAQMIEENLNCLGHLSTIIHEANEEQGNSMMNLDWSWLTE
# [39] = biological target: Muscarinic acetylcholine receptor M2 (Homo sapiens) (UniProt P08172); settings: Compound concentration 10.0 uM
# [40] = biological target: D(1B) dopamine receptor (Homo sapiens) (UniProt P21918); settings: Compound concentration 10.0 uM
# [41] = biological target: Interleukin-1 receptor-associated kinase 1 (Homo sapiens) (UniProt P51617); settings: Compound concentration 1000.0 nM
# Sequence of Interleukin-1 receptor-associated kinase 1 (Homo sapiens) (P51617 whole entry, looked up): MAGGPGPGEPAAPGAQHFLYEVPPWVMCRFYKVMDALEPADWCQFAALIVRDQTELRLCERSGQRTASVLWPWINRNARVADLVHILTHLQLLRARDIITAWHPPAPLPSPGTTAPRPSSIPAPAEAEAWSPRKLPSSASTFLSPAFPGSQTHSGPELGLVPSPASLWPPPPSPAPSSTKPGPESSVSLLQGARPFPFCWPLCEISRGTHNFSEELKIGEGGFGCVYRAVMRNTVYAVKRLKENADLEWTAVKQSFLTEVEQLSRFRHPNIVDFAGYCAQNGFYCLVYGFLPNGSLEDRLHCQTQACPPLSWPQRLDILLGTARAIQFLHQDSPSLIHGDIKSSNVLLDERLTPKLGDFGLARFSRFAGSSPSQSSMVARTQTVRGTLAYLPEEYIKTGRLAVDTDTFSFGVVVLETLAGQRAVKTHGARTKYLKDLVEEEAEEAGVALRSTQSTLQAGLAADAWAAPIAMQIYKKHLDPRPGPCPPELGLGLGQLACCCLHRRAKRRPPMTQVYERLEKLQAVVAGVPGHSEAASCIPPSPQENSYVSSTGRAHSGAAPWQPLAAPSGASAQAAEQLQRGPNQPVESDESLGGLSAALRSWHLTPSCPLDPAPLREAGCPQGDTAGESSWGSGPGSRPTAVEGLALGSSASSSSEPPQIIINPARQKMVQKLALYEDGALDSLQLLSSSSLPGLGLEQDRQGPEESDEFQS
# [42] = biological target: Phosphatidylinositol 4-phosphate 5-kinase type-1 gamma (Homo sapiens) (UniProt O60331); settings: Compound concentration 1000.0 nM
# [43] = biological target: Macrophage colony-stimulating factor 1 receptor (Homo sapiens) (UniProt P07333); settings: Compound concentration 1000.0 nM; remark: listed apart in the source
# [44] = biological target: Muscle, skeletal receptor tyrosine-protein kinase (Homo sapiens) (UniProt O15146); settings: Compound concentration 1000.0 nM
# [45] = biological target: Phosphatidylinositol 5-phosphate 4-kinase type-2 gamma (Homo sapiens) (UniProt Q8TBX8); settings: Compound concentration 1000.0 nM
# Sequence of Angiopoietin-1 receptor (Homo sapiens) (Q02763 whole entry): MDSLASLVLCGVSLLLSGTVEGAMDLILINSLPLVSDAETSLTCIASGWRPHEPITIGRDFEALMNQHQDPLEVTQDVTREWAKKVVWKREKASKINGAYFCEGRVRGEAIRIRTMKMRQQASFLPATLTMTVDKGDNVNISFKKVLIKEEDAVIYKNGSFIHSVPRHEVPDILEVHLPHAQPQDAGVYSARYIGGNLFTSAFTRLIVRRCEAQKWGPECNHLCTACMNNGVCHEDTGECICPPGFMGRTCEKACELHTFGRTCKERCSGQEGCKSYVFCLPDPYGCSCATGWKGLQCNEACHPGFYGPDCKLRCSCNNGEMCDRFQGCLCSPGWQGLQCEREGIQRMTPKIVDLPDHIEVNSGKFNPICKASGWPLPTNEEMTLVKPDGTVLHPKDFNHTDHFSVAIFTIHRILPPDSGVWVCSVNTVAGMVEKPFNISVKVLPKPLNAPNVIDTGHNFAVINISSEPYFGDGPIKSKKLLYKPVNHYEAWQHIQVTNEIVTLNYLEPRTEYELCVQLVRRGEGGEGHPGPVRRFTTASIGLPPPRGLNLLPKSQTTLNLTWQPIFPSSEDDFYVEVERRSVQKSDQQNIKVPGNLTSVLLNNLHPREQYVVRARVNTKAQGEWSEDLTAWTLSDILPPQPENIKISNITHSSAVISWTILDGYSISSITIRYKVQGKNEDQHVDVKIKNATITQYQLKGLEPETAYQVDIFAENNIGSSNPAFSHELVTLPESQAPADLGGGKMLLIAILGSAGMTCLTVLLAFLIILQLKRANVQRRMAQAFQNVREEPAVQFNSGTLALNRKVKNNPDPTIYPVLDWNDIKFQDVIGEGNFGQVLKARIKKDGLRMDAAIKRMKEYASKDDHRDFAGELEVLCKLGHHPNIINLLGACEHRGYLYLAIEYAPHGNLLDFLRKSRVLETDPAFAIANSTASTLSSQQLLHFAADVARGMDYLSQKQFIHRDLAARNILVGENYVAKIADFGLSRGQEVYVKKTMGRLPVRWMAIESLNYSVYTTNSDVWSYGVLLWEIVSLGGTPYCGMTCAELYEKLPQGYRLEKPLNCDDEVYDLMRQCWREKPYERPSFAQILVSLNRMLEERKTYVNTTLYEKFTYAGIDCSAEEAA
smiles,measurement,setting,value
C[C@@H](c1cccc(C#N)c1)n1cc(Cl)cc(C(N)=O)c1=N [(S)-9s],residual activity,[1],100%
same,residual activity,[2],100%
same,residual activity,[3],90%
same,residual activity,[4],50%
same,residual activity,[5],92%
same,residual activity,[6],88%
same,residual activity,[7],73%
same,residual activity,[8],93%
same,residual activity,[9],100%
same,residual activity,[10],99%
same,residual activity,[11],100%
same,residual activity,[12],100%
same,residual activity,[13],82%
same,residual activity,[14],100%
same,residual activity,[15],97%
same,residual activity,[16],100%
same,residual activity,[17],68%
same,residual activity,[18],86%
same,residual activity,[19],100%
same,residual activity,[20],96%
same,residual activity,[21],100%
same,residual activity,[22],100%
same,residual activity,[23],100%
same,residual activity,[24],100%
same,residual activity,[25],100%
same,residual activity,[26],100%
same,residual activity,[27],85%
same,inhibition,[28],0.47%
same,residual activity,[29],94%
same,residual activity,[30],76%
same,residual activity,[31],90%
same,residual activity,[32],100%
same,residual activity,[33],100%
same,residual activity,[34],56%
same,residual activity,[35],98%
same,residual activity,[36],96%
same,residual activity,[37],94%
same,residual activity,[38],100%
same,inhibition,[39],0.11%
same,inhibition,[40],16.1%
same,residual activity,[41],76%
same,residual activity,[42],100%
same,residual activity,[43],96%
same,residual activity,[44],100%
same,residual activity,[45],85%
C[C@H](c1cccc(C#N)c1)n1cc(Cl)cc(C(N)=O)c1=N [(R)-9s],residual activity,[1],91%
same,residual activity,[2],77%
same,residual activity,[3],96%
same,residual activity,[4],45%
same,residual activity,[5],100%
same,residual activity,[6],100%
same,residual activity,[7],100%
same,residual activity,[8],100%
same,residual activity,[9],100%
same,residual activity,[10],100%
same,residual activity,[11],100%
same,residual activity,[12],100%
same,residual activity,[13],80%
same,residual activity,[14],100%
same,residual activity,[15],78%
same,residual activity,[16],99%
same,residual activity,[17],100%
same,residual activity,[18],86%
same,residual activity,[19],86%
same,residual activity,[20],96%
same,residual activity,[21],100%
same,residual activity,[22],98%
same,residual activity,[23],100%
same,residual activity,[24],88%
same,residual activity,[25],100%
same,residual activity,[26],100%
same,residual activity,[27],79%
same,inhibition,[28],-2.33%
same,residual activity,[29],100%
same,residual activity,[30],80%
same,residual activity,[31],95%
same,residual activity,[32],100%
same,residual activity,[33],100%
same,residual activity,[34],82%
same,residual activity,[35],100%
same,residual activity,[36],100%
same,residual activity,[37],88%
same,residual activity,[38],100%
same,inhibition,[39],-3.2%
same,inhibition,[40],10.7%
same,residual activity,[41],71%
same,residual activity,[42],99%
same,residual activity,[43],100%
same,residual activity,[44],100%
same,residual activity,[45],100%
